Test results as given in PMC3411462, “Long-acting κ opioid antagonists nor-BNI, GNTI and JDTic: pharmacokinetics in mice and lipophilicity” (BMC Pharmacology, 2012).
Several values for one entry are separate records, joined by “and”; a condition that tells them apart may be missing. Equal values may be shown once. Read-outs that look alike come from different tables or passages of the source. Marks after values point to notes of the source that are not given here.

Tests used:
Water solubility = format: physicochemical; conditions: distilled water, thermodynamic from solid, 25 °C, salt tested
Experimental: Distilled water was added slowly by microsyringe to 10–15 mg of drug in a glass vial, swirling until no solid was visible.

[1] = Brain and plasma concentrations in mice after intraperitoneal administration (LC-MS-MS), non-compartmental analysis; format: in vivo; conditions: for [drug],brain (free base equivalent) / [drug],plasma (free base equivalent): listed as JDTic.2HCl.H2O
[2] = 0.5 h, 10 mg/kg i.p., individual mice, 10 mg/kg
[3] = 1 h, 10 mg/kg i.p., individual mice, 10 mg/kg
[4] = 2 h, 10 mg/kg i.p., individual mice, 10 mg/kg
[5] = 4 h, 10 mg/kg i.p., individual mice, 10 mg/kg
[6] = 24 h, 10 mg/kg i.p., individual mice, 10 mg/kg

CC(C)[C@@H](CN1CC[C@@](C)(c2cccc(O)c2)[C@@H](C)C1)NC(=O)[C@H]1Cc2ccc(O)cc2CN1 [JDTic, (3R)-7-Hydroxy-N-((1S)-1-{[(3R,4R)-4-(3-hydroxyphenyl)-3,4-dimethyl-1-piperidinyl]methyl}-2-methylpropyl)-1,2,3,4-tetrahydro-3-isoquinolinecarboxamide]
solubility (Water solubility): > 45 mM
Time of maximal mean plasma level ([1]; 10 mg kg^-1 i.p., mice): approximately 30 minutes
[drug],brain (free base equivalent) [1, 2]: 66.3 ng/g and 60.3 ng/g and 155 ng/g and 37.5 ng/g and 49.5 ng/g and 57.9 ng/g
[drug],plasma (free base equivalent) [1, 2]: 263 ng/mL and 237 ng/mL and 330 ng/mL and 248 ng/mL and 145 ng/mL
[drug],brain (free base equivalent) [1, 3]: 61.5 ng/g and 45.3 ng/g and 38.1 ng/g and 116 ng/g and 49.2 ng/g and 56.7 ng/g
[drug],plasma (free base equivalent) [1, 3]: 152 ng/mL and 270 ng/mL and 114 ng/mL and 126 ng/mL and 130 ng/mL and 134 ng/mL
[drug],brain (free base equivalent) [1, 4]: 48.3 ng/g and 36.9 ng/g
[drug],plasma (free base equivalent) [1, 4]: 57.3 ng/mL and 71 ng/mL
[drug],brain (free base equivalent) [1, 5]: 80.4 ng/g and 46.2 ng/g
[drug],plasma (free base equivalent) [1, 5]: 69.6 ng/mL and 40.3 ng/mL and 30 ng/mL
[drug],brain (free base equivalent) [1, 6]: 30.3 ng/g and 32.1 ng/g
[drug],plasma (free base equivalent) [1, 6]: <4 ng/mL
[drug],brain (free base equivalent) ([1]; 48 h, 10 mg/kg i.p., individual mice, 10 mg/kg): 936* ng/g and 32.7 ng/g and 16.7 ng/g
[drug],brain (free base equivalent) ([1]; 168 h, 10 mg/kg i.p., individual mice, 10 mg/kg): <12 ng/g (2×) and 43.8 ng/g
Peak unbound brain level ([1]; at 30 minutes, 10 mg kg^-1 i.p., estimate): up to 4 nM
AUMC 0-inf_obs ([1]; brain NCA, 10 mg/kg i.p.): 3158084 ng/ml*h^2
Tlag ([1]; brain NCA, 10 mg/kg i.p.): 0 h
C max,brain ([1]; brain, 10 mg kg^-1 i.p., mice): 71 ng/mL
Decline of mean plasma concentration from peak ([1]; by 24 hours, 10 mg kg^-1 i.p.): at least 98%
concentration at 4 h ([1]; male, Swiss-Webster (Crl:CFW(SW)), mouse, brain, intraperitoneal, 10 mg/kg, 4 h, 10 mg/kg, read-out: Conc (brain, NCA input)): 62.4 ng/mL
concentration at 24 h ([1]; male, Swiss-Webster (Crl:CFW(SW)), mouse, brain, intraperitoneal, 10 mg/kg, 24 h, 10 mg/kg, read-out: Conc (brain, NCA input)): 30.9 ng/mL
concentration at 48 h ([1]; male, Swiss-Webster (Crl:CFW(SW)), mouse, brain, intraperitoneal, 10 mg/kg, 48 h, 10 mg/kg, read-out: Conc (brain, NCA input)): 24.7 ng/mL
concentration at 168 h ([1]; male, Swiss-Webster (Crl:CFW(SW)), mouse, brain, intraperitoneal, 10 mg/kg, 168 h, 10 mg/kg, read-out: Conc (brain, NCA input)): 18.6 ng/mL
concentration at 4 h ([1]; male, Swiss-Webster (Crl:CFW(SW)), mouse, brain, ip, 10 mg/kg, 4 h, 10 mg/kg i.p., individual mice, read-out: [drug],brain (free base equivalent)): 60.6 ng/g
concentration at 4 h ([1]; male, Swiss-Webster (Crl:CFW(SW)), mouse, brain, ip, 10 mg/kg, 4 h, 10 mg/kg i.p., read-out: mean (brain)): 62.4 ng/g
concentration at 24 h ([1]; male, Swiss-Webster (Crl:CFW(SW)), mouse, brain, ip, 10 mg/kg, 24 h, 10 mg/kg i.p., individual mice, read-out: [drug],brain (free base equivalent)): 30.3 ng/g
concentration at 24 h ([1]; male, Swiss-Webster (Crl:CFW(SW)), mouse, brain, ip, 10 mg/kg, 24 h, 10 mg/kg i.p., read-out: mean (brain)): 30.9 ng/g
concentration at 48 h ([1]; male, Swiss-Webster (Crl:CFW(SW)), mouse, brain, ip, 10 mg/kg, 48 h, 10 mg/kg i.p., outlier excluded, read-out: mean (brain)): 24.7 ng/g
concentration at 168 h ([1]; male, Swiss-Webster (Crl:CFW(SW)), mouse, brain, ip, 10 mg/kg, 168 h, 10 mg/kg i.p., <MRC substituted by MRC/2, read-out: mean (brain)): 18.6 ng/g
AUC(0-inf) ([1]; male, Swiss-Webster (Crl:CFW(SW)), mouse, brain, ip, 10 mg/kg, brain NCA, 10 mg/kg i.p., read-out: AUC 0-inf_obs): 10300 ng·h/mL
Kp uu ([1]; male, Swiss-Webster (Crl:CFW(SW)), mouse, brain/plasma (unbound), ip, supplement, 10 mg/kg i.p., read-out: Kp,uu,brain (AUC0–∞,brain,u / AUC0–∞,p,u)): < 1.42
Kp ([1]; male, Swiss-Webster (Crl:CFW(SW)), mouse, brain/plasma, ip, 10 mg/kg, supplement, 10 mg/kg i.p., read-out: Kp,brain (AUC0–∞,brain / AUC0–∞,p)): 11.6
MRT inf ([1]; male, Swiss-Webster (Crl:CFW(SW)), mouse, ip, brain NCA, 10 mg/kg i.p., read-out: MRT 0-inf_obs): 12.8 days
Kp uu ([1]; male, Swiss-Webster, mouse, brain and plasma (unbound), ip, 10 mg kg^-1, 10 mg kg^-1 i.p., mice, read-out: K p,uu,brain (AUC0–∞,brain,u/AUC0–∞,p,u)): ≤ 1.4
Kp uu ([1]; male, Swiss-Webster, mouse, brain and plasma (unbound), ip, 10 mg/kg, 10 mg kg^-1 i.p., mice, read-out: Cmax,brain,u/Cmax,p,u): < 0.04
Kp ([1]; male, Swiss-Webster, mouse, brain and plasma, ip, 10 mg kg^-1, 10 mg kg^-1 i.p., mice, read-out: K p,brain (AUC0–∞,brain/AUC0–∞,p)): 11.6
Kp ([1]; male, Swiss-Webster, mouse, brain and plasma, ip, 10 mg/kg, 10 mg kg^-1 i.p., mice, read-out: Cmax,brain/Cmax,p): 0.29
concentration at 0.5 h ([1]; male, Swiss-Webster, mouse, brain, intraperitoneal, 10 mg/kg, 0.5 h, 10 mg/kg, read-out: Conc (brain, NCA input)): 71.1 ng/mL
concentration at 1 h ([1]; male, Swiss-Webster, mouse, brain, intraperitoneal, 10 mg/kg, 1 h, 10 mg/kg, read-out: Conc (brain, NCA input)): 61.1 ng/mL
concentration at 2 h ([1]; male, Swiss-Webster, mouse, brain, intraperitoneal, 10 mg/kg, 2 h, 10 mg/kg, read-out: Conc (brain, NCA input)): 38.4 ng/mL
half-life ([1]; male, Swiss-Webster, mouse, brain, ip, 10 mg/kg, 10 mg kg^-1 i.p., mice, read-out: Terminal half-life in brain (converted)): ~9 days
concentration at 0.5 h ([1]; male, Swiss-Webster, mouse, brain, ip, 10 mg/kg, 0.5 h, 10 mg/kg i.p., read-out: mean (brain)): 71.1 ng/g
